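Grown in 96-well plates, cells were treated for 48 hours with each compound at five concentrations. Insufficient inhibition: endpoint recorded as highest concentration tested. TGI is the concentration that stops growth completely.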
Legend:
Test in all cases: DTP human tumour cell line panel, 48 h
OVCAR-8 ovarian = system: OVCAR-8 ovarian
HOP-92 NSCLC = system: HOP-92 NSCLC
EKVX NSCLC = system: EKVX NSCLC
MDA-MB-231 breast = system: MDA-MB-231 breast
MALME-3M melanoma = system: MALME-3M melanoma
MDA-MB-435 = system: MDA-MB-435
NCI/ADR-RES ovarian = system: NCI/ADR-RES ovarian
HCT-116 colon = system: HCT-116 colon
SK-MEL-28 melanoma = system: SK-MEL-28 melanoma
786-0 renal = system: 786-0 renal
OVCAR-4 ovarian = system: OVCAR-4 ovarian
COLO 205 colon = system: COLO 205 colon
OVCAR-5 ovarian = system: OVCAR-5 ovarian
DU-145 prostate = system: DU-145 prostate
K-562 leukemia = system: K-562 leukemia
TK-10 renal = system: TK-10 renal
SK-MEL-2 melanoma = system: SK-MEL-2 melanoma
SN12C renal = system: SN12C renal
MOLT-4 leukemia = system: MOLT-4 leukemia
HT29 colon = system: HT29 colon
IGROV1 ovarian = system: IGROV1 ovarian
U251 CNS = system: U251 CNS
HS 578T breast = system: HS 578T breast
NCI-H460 lung = system: NCI-H460 lung
NCI-H522 lung = system: NCI-H522 lung
NCI-H23 lung = system: NCI-H23 lung
OVCAR-3 ovarian = system: OVCAR-3 ovarian
SNB-75 CNS = system: SNB-75 CNS
KM12 colon = system: KM12 colon
LOX IMVI melanoma = system: LOX IMVI melanoma
HL-60(TB) leukemia = system: HL-60(TB) leukemia
UACC-257 melanoma = system: UACC-257 melanoma
SR leukemia = system: SR leukemia
NCI-H226 lung = system: NCI-H226 lung
SF-268 CNS = system: SF-268 CNS
A549 NSCLC = system: A549 NSCLC
HCC-2998 colon = system: HCC-2998 colon
SW-620 colon = system: SW-620 colon
RPMI-8226 leukemia = system: RPMI-8226 leukemia
HOP-62 NSCLC = system: HOP-62 NSCLC
MCF7 breast = system: MCF7 breast
MDA-N = system: MDA-N
UACC-62 melanoma = system: UACC-62 melanoma
ACHN renal = system: ACHN renal
UO-31 renal = system: UO-31 renal
HCT-15 colon = system: HCT-15 colon
CCRF-CEM leukemia = system: CCRF-CEM leukemia
SNB-19 CNS = system: SNB-19 CNS
M14 melanoma = system: M14 melanoma
SK-OV-3 ovarian = system: SK-OV-3 ovarian
SF-295 CNS = system: SF-295 CNS
CAKI-1 renal = system: CAKI-1 renal
PC-3 prostate = system: PC-3 prostate
SF-539 CNS = system: SF-539 CNS
BT-549 breast = system: BT-549 breast

Measured: TGI

Cc1cc(C)c2ccc(N3CCNCC3)nc2n1
> 100 µM: all assays above
